IC50 data for 18 molecules are collected here from patent US20240316051A1, “A PHARMACEUTICAL COMBINATION AND USE THEREOF” (Ascentage Pharma (Suzhou) Co., Ltd., priority 2021, published 2024).

Each structure is given as a SMILES string. pIC50: −log10 of the molar value. Bounds are passed on as bounds.

The target in the first experiment is T1, EED (1-441)-His protein (Homo sapiens, UniProt O75530).
T1 construct: 20 nM EED (1-441)-His protein
T1 sequence (O75530 whole entry): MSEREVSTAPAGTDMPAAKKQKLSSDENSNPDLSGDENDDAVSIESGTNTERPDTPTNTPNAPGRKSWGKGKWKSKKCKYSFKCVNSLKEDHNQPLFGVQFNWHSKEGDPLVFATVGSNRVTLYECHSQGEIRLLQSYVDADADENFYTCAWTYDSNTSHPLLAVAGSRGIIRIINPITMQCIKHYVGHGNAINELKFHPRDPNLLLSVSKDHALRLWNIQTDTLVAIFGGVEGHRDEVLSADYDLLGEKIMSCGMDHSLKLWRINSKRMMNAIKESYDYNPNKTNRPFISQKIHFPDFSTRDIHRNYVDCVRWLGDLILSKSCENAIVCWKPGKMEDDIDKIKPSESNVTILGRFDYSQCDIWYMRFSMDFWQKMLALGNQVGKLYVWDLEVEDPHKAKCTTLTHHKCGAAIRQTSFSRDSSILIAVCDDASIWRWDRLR
As to the kind of experiment: EED-H3K27Me3 peptide competition binding assay by AlphaScreen. To be noted: IC50 class, Table 4B, read-out: Alpha screen. The procedure: EED-H3K27Me3 Peptide Competition Binding Assay by AlphaScreen (α-Screen):
The compounds at each concentration (2.5 μl of each) were transferred into a 384-well Perkin Elmer OptiPlate-384 white plates. 5 μl of solutions containing 20 nM EED (1-441)-His protein in the buffer (25 mM HEPES, pH 8, 0.02% Tween-20, 0.5% BSA) were added to the wells and then incubated with compound for 15 min. 2.5 μl of solutions containing 20 nM biotin-H3K27Me3 (19-33) peptide in the buffer (25 mM HEPES, pH 8, 0.02% Tween-20, 0.5% BSA) were added to the wells and then incubated with compound for 30 min. AlphaScreen detection beads mix was prepared immediately before use by mixing nickel chelate acceptor beads and streptavidin donor beads in a 1:1 ratio (Perkin Elmer, Product No. 6760619C/M/R) into the buffer described above. Then 10 μl of the detection beads mix was added to the plate and incubated in the dark at RT for 1 h. The final concentration of donor and acceptor beads was 10 μg/ml for each. Plates were read on CLARIOStar plate reader (BMG Labtech) using the AlphaScreen setting adapted for optimal signal detection with a 615 nm filter, after sample excitation at 680 nm. The emission signal at 615 nm was used to quantify compound inhibition. AlphaScreen signals were normalized based on the reading coming from the positive (maximum signal control) and negative controls (minimum signal control) to give percentage of activities left. The data were then fit to a dose response equation to get the IC50 values.
On the technique in general: In Alpha technology, singlet oxygen from a donor bead excites a nearby acceptor bead.
Regarding `CC(C)N1Cc2cc(C(F)F)ncc2-c2cnc(NCc3c(F)ccc4c3CCO4)n3cnc(c23)C1=O` [E 11, 7-(difluoromethyl)-12-(((5-fluoro-2,3-dihydro-benzofuran-4-yl)methyl)amino)-4-isopropyl-4,5-dihydro-3H-2,4,8,11,12a-pentaazabenzo[4,5] cycloocta[1,2,3-cd]inden-3-one], the pIC50 is over 8.00.

The experiment is the same for the next values; noted with them: Table 4A, read-out: Alpha screen.
On to `CN1CCC(N2Cc3cc(C(F)(F)F)ccc3-c3cnc(NCc4c(F)ccc5c4CCO5)n4cnc(c34)C2=O)CC1` [Compound 74, 12-(((5-fluoro-2,3-dihydrobenzofuran-4-yl)methyl)amino)-4-(1-methylpiperidin-4-yl)-7-(trifluoro-methyl)-4,5-dihydro-3H-2,4,11,12a-tetraazabenzo [4,5]cycloocta[1,2,3-cd]inden-3-one], for which the pIC50 was 8.78. Regarding `COc1cccc(F)c1CNc1ncc2c3c(ncn13)C(=O)N(C1CC1)Cc1nc(C(F)(F)F)ccc1-2` [Compound 69, 4-cyclopropyl-12-((2-fluoro-6-methoxybenzyl)amino)-7-(trifluoromethyl)-4,5-dihydro-3H-2,4,6, 11,12a-pentaazabenzo[4,5]cycloocta[1,2,3-cd] inden-3-one], the pIC50 was 7.70. The same measure, in the same setting: in the case of `CC1(O)CC(CN2Cc3nc(C(F)(F)F)ccc3-c3cnc(NCc4c(F)ccc5c4CCO5)n4cnc(c34)C2=O)C1` (stereo not drawn) [Compound 47, 12-(((5-fluoro-2,3-dihydrobenzofuran-4-yl)methyl)amino)-4-((3-hydroxy-3-methylcyclobutyl)methyl)-7-(trifluoromethyl)-4,5-dihydro-3H-2,4,6,11,12a-pentaazabenzo[4,5]cycloocta[1,2,3-cd]inden-3-one] it was 9.04.

Turning to `O=C1c2ncn3c(NCc4c(F)ccc5c4CCO5)ncc(c23)-c2ccc(C(F)(F)F)cc2CN1CC(F)F` [Compound 81, 4-(2,2-difluoroethyl)-12-(((5-fluoro-2,3-dihydro-benzofuran-4-yl)methyl)amino)-7-(trifluoromethyl)-4,5-dihydro-3H-2,4,11,12a-tetraazabenzo[4,5] cycloocta[1,2,3-cd]inden-3-one], the pIC50 is 8.77. For the molecule `O=C1OCc2c(F)cccc2-c2cnc(NCc3c(F)ccc4c3CCO4)n3cnc1c23` [Compound 11, 6-fluoro-12-(((5-fluoro-2,3-dihydrobenzofuran-4-yl)methyl)amino)-3H,5H-4-oxa-2,11,12a-triazabenzo [4,5]cycloocta[1,2,3-cd]inden-3-one], the pIC50 is 9.12. For `O=C1c2ncn3c(NCc4c(F)ccc5c4CCO5)ncc(c23)-c2cnc(C(F)(F)F)cc2CN1C1CC1` [Compound 36, 4-cyclopropyl-12-(((5-fluoro-2,3-dihydrobenzofuran-4-yl)methyl)amino)-7-(trifluoromethyl)-4,5-dihydro-3H-2,4,8,11,12a-pentaazabenzo[4,5]cycloocta[1,2,3-cd]inden-3-one], the pIC50 was 8.84. With `Cc1ccc2c(n1)CS(=O)(=O)c1ncn3c(NCc4c(F)ccc5c4CCO5)ncc-2c13` [Compound 95, 11-(((5-fluoro-2,3-dihydrobenzofuran-4-yl)methyl)amino)-6-methyl-4H-3-thia-2,5,10,11a-tetraazadibenzo[cd,f]azulene 3,3-dioxide], the pIC50 is 7.88.

For the molecule `O=C1OCc2cc(F)ccc2-c2cnc(NCc3cccc4c3CCO4)n3cnc1c23` [Compound 9, 12-(((2,3-dihydrobenzofuran-4-yl)methyl)amino)-7-fluoro-3H,5H-4-oxa-2,11,12a-triazabenzo[4,5] cycloocta[1,2,3-cd]inden-3-one], the pIC50 is 9.08. In the case of `CC(C)(O)CN1Cc2cc(C(F)(F)F)ncc2-c2cnc(NCc3c(F)ccc4c3CCO4)n3cnc(c23)C1=O` [Compound 48, 12-(((5-fluoro-2,3-dihydrobenzofuran-4-yl)methyl)amino)-4-(2-hydroxy-2-methylpropyl)-7-(trifluoro-methyl)-4,5-dihydro-3H-2,4,8,11,12a-pentaaza-benzo[4,5]cycloocta[1,2,3-cd]inden-3-one], the pIC50 was 8.78. On to `O=C1NCc2cc(C(F)(F)F)ncc2-c2cnc(NCc3c(F)ccc4c3CCO4)n3cnc1c23` [Compound 22, 12-(((5-fluoro-2,3-dihydrobenzofuran-4-yl)methyl)amino)-7-(trifluoromethyl)-4,5-dihydro-3H-2,4,8, 11,12a-pentaazabenzo[4,5]cycloocta[1,2,3-cd] inden-3-one], for which the pIC50 was 9.17.

For `O=C1OCc2ccc(C(F)(F)F)nc2-c2cnc(NCc3c(F)ccc4c3CCO4)n3cnc1c23` [Compound 29, 12-(((5-fluoro-2,3-dihydrobenzofuran-4-yl)methyl)amino)-8-(trifluoromethyl)-3H,5H-4-oxa-2,9,11, 12a-tetraazabenzo[4,5]cycloocta[1,2,3-cd]inden-3-one], the pIC50 is 7.68. In the case of `O=C1c2ncn3c(NCc4c(F)ccc5c4CCO5)ncc(c23)-c2cnc(C(F)(F)F)cc2CN1CC1COCCO1` (stereo not drawn) [Compound 37, 4-((1,4-dioxan-2-yl)methyl)-12-(((5-fluoro-2,3-dihydrobenzofuran-4-yl)methyl)amino)-7-(trifluoro-methyl)-4,5-dihydro-3H-2,4,8,11,12a-pentaazabenzo [4,5]cycloocta[1,2,3-cd]inden-3-one], the pIC50 was 9.03.

For `CN1Cc2ccc(C(F)(F)F)nc2-c2cnc(NCc3c(F)ccc4c3CCO4)n3cnc(c23)C1=O` [Compound 39, 12-(((5-fluoro-2,3-dihydrobenzofuran-4-yl)methyl)amino)-4-methyl-8-(trifluoromethyl)-4,5-dihydro-3H-2,4,9,11,12a-pentaazabenzo[4,5]cycloocta [1,2,3-cd]inden-3-one], the pIC50 was 7.58. For the molecule `Cc1nc2c(s1)-c1cnc(NCc3c(F)ccc4c3CCO4)n3cnc(c13)C(=O)N(C1CC1)C2` [Compound 86, 4-cyclopropyl-11-(((5-fluoro-2,3-dihydrobenzofuran-4-yl)methyl)amino)-7-methyl-4,5-dihydro-3H-8-thia-2,4,6,10,11a-pentaazacyclopenta[4,5] cycloocta[1,2,3-cd]inden-3-one], the pIC50 was 8.59. Consider `CN1CCC(CN2Cc3nc(C(F)(F)F)ccc3-c3cnc(NCc4c(F)ccc5c4CCO5)n4cnc(c34)C2=O)CC1` [Compound 42, 12-(((5-fluoro-2,3-dihydrobenzofuran-4-yl)methyl)amino)-4-((1-methylpiperidin-4-yl)methyl)-7-(trifluoromethyl)-4,5-dihydro-3H-2,4,6,11,12a-pentaazabenzo[4,5]cycloocta[1,2,3-cd]inden-3-one], for which the pIC50 was 9.08. Regarding `Fc1ccc2c(c1CNc1ncc3c4c(ncn14)COCc1ncccc1-3)CCO2` [Compound 2, N-((5-fluoro-2,3-dihydrobenzofuran-4-yl)methyl)-3H,5H-4-oxa-2,6,11,12a-tetraazabenzo[4,5]cycloocta[1,2,3-cd]inden-12-amine], the pIC50 is under 8.00. As to `CN1Cc2cc(C(F)(F)F)ncc2-c2cnc(NCc3c(F)ccc4c3CCO4)n3cnc(c23)C1=O` [Compound 34, 12-(((5-fluoro-2,3-dihydrobenzofuran-4-yl)methyl)amino)-4-methyl-7-(trifluoromethyl)-4,5-dihydro-3H-2,4,8,11,12a-pentaazabenzo[4,5]cycloocta [1,2,3-cd]inden-3-one], the pIC50 is 9.17.
